Results on one molecule are retold here after patent publication US11982667B2, “Platelet aggregation capacity analyzer, analysis method, and analysis system using complex dielectric permittivity” (SONY CORPORATION, priority 2018, dated 2024).

Molecules are shown by their SMILES.

The conditions of series [1]: single oral administration of 200 mg; cited from earlier work.
The subject of series [2] is platelets in whole blood (ADP pathway). Put plainly: DBCM platelet assay (ADP pathway), activation residual rate AR3 by Method 3. The series is classed as cell-based, human. As to conditions: citrated whole blood of healthy volunteers spiked with ticagrelor; final blood concentration 400 nM and above; ADP 13 μM; DCS74 feature value. The procedure:
In this experiment, the operating sequence of the dielectric coagulation analyzer experimental machine developed for dielectric blood coagulometry (also simply herein referred to as “DBCM”) was used with some modifications to realize a platelet assay.
When the measurement is started, 200 μL of citric acid-added blood sample is dispensed into a disposable cartridge into which a reagent(s) has been introduced in advance, and the mixture is mixed and stirred by automatic pipetting with a suction volume of about 200 μL. […]
Immediately after the completion of stirring, the dielectric permittivity measurement was started, and a change in the blood dielectric permittivity associated with blood coagulation was recorded at a measurement frequency of from 10 kHz to 10 MHz, a measurement time of 60 min, and a measurement time interval of 5 sec. […]
Meanwhile, in Methods 1 and 2, the response upper limit was obtained when the measurement was conducted without adding any agonist experimentally. […] In this regard, however, the ideal measured value should be obtained when 215 mM lyophilized calcium chloride reagent without any agonist is used and the number of stirring operations is changed to 5 times which is the minimum so as to prevent some of the platelets from being activated and reacted due to stirring-induced shear stress. […]

Take `CCCSc1nc(N[C@@H]2C[C@H]2c2ccc(F)c(F)c2)c2nnn([C@@H]3C[C@H](OCCO)[C@@H](O)[C@H]3O)c2n1` [ticagrelor]: in series [1], the maximum plasma concentration was 923 ng/mL. In addition, the “platelet activation residual rate AR3 (%)” value in series [2] is ≤ 30%.
